Measurements published in patent US20080131432A1, “Method of treating the chemotoxic effects of chemotherapeutic drugs on brain tissue” (University of Kentucky Research Foundation, priority 2005, published 2008).
Entries after “also recorded” stand apart in the source; their conditions may differ. Where a name gives a salt, the structure may show the parent alone.

What was measured:
TNF α = TNF α levels in serum (mouse TNF-α ELISA); type: in vivo
Description: Mice were treated with 20 mg/kg ADR or saline as control. Blood samples were collected at 1, 3, 6, 9, 24 hours and allowed to clot at 2-8° C. overnight. Serum samples were used to measure TNF α levels, according to the mouse enzyme-linked immunosorbent assay following the manufacturers' instructions (mouse TNF-α/TNFSF1A immunoassay, R&D Systems, Minneapolis, MN). The TNF α concentration in the sample was calculated from a recombinant mouse TNF α standard curve. The minimum detection limit is typically less than 5.1 pg/mL.
8-week-old male B6C3 mice (25-30 g) were kept under standard conditions. Mice were injected with a single intraperitoneal (i.p.) treatment with adriamycin (doxorubicin hydrochloride, 20 mg/kg), TNF-α, anti-mouse TNF-antibody (40 ng/kg), dipropylenetriamine NONOate (DPTA NONOate, […]), lipopolysaccharide (LPS 1 mg/kg), NG-nitro-L-arginine-methyl esther (L-NAME, 10 mg/kg) or pre-immune IgG.
Mice were treated with 20 mg/kg ADR, TNF-α, anti-mouse TNF-antibody, dipropylenetriamine NONOate, lipopolysaccharide, NG-nitro-L-arginine-methyl esther or pre-immune IgG, as well as saline as control. Blood samples were collected at 3 hours after ADR treatment and allowed to clot at 2-8° C. overnight. Serum samples were used to measure TNF levels, according to the mouse enzyme-linked immunosorbent assay following the manufacturers' instructions (mouse TNF-α/TNFSF1A immunoassay, R&D Systems, Minneapolis, Minn.). The TNF concentration in the sample was calculated from a recombinant mouse TNF standard curve. The minimum detection limit is typically less than 5.1 pg/mL.

[1] = test system: cortical and hippocampal cells; experiment: TUNEL-positive apoptotic cell death in cortical and hippocampal regions; type: in vivo, mouse; conditions: 3 and 72 hours after ADR, vs saline
Description: (A) Brain cryosection tissues were treated with biotinylated rTdT, followed by streptavidin peroxidase and diaminobenzidine-hydrogen peroxide, and counterstained with methyl-green. […] (For interpretation of the references to colour in this figure legend, the reader is referred to the web version of this article.)

Q: For `COc1cccc2c1C(=O)c1c(O)c3c(c(O)c1C2=O)C[C@@](O)(C(=O)CO)C[C@@H]3O[C@H]1C[C@H](N)[C@H](O)[C@H](C)O1` [ADR, Doxorubicin hydrochloride], which “Time course of increased serum TNF α” value (TNF α; 20 mg/kg ADR, blood at 1, 3, 6, 9, 24 hours, hydrochloride) is on record?
A: detectable as early as 1 hour and were sustained throughout a 24 hour period; also recorded: increased at the earliest time point examined

Q: What about the “TNF-α level in serum (circulating TNF-α)” value (TNF α; iNOSKO mice, 3 hours after treatment) of the same molecule?
A: significantly elevated

Q: What about the “TNF α level in serum (circulating TNF α)” value (TNF α; wild-type mice, 3 hours after single i.p. treatment, vs saline control, hydrochloride) of the same molecule?
A: significantly higher; also recorded: significantly elevated

Q: And the “TUNEL-positive apoptotic cells in cortex and hippocampus” value [1]?
A: increased number of apoptotic cells
